In US4317815A, “LH-RH Antagonists” (priority 1979, dated 1982):
*1 amine or outer side, *2 acyl side, *3 side chain or, on linkers, in order; H or OH if unused. Where a SMILES comes first, the peptide text is derived from it. [ ]: non-standard residue; d: D form. dPhe(4-Br) = N[C@H](Cc1ccc(Br)cc1)C(=O)O; dPhe(4-Cl) = N[C@H](Cc1ccc(Cl)cc1)C(=O)O; dPhe(4-F) = N[C@H](Cc1ccc(F)cc1)C(=O)O; Suc = O=C(CCC(=O)[*:2])[*:1]

Tested on: mature female rats
Experiment: Antiovulatory activity (blockade of ovulation) in proestrus female rats, test of de la Cruz et al.
Format: in vivo, rat
Conditions: 12 noon of proestrus
Experimental: The analogs are administered in 20% propylene glycol in physiologic saline (see Table I) or as a suspension in corn oil (see Table II) at 12 noon of the day of proestrus. On the following day, the rats are sacrificed, their fallopian tubes and uteri flushed with saline and the washed examined for ova.
The test results for several analogs are given in Table I. In Table II, a comparison, between the compound of formula I in which X is acetyl, R^1 is D-Phe, R^2 is D-p-Cl-Phe, R^3 is D-Trp, R^4 is D-Trp and R^5 is Gly, the title compound of Example 7, and the compound of the prior art, [Ac-D-Phe^1, D-Phe^2, D-Trp^3,6 ]-LH-RH, noted hereinbefore, is shown. As noted above, a different carrier is used for administering the compounds in Table I than in Table II.

[1] = Table I, dose 0.062 mg, in 20% propylene glycol in physiologic saline
[2] = Table I, dose 0.125 mg, in 20% propylene glycol in physiologic saline
[3] = Table I, dose 0.25 mg, in 20% propylene glycol in physiologic saline, ova examined the following day
[4] = Table I, dose 0.015 mg, in 20% propylene glycol in physiologic saline

## CC(C)C[C@H](NC(=O)[C@@H](Cc1ccccc1)NC(=O)[C@H](Cc1ccc(O)cc1)NC(=O)[C@H](CO)NC(=O)[C@@H](Cc1c[nH]c2ccccc12)NC(=O)[C@@H](Cc1ccc(Cl)cc1)NC(=O)[C@@H](Cc1ccccc1)NC(=O)CCC(=O)O)C(=O)N[C@@H](CCCNC(=N)N)C(=O)N1CCC[C@H]1C(=O)NCC(N)=O [Example 10, N-Succinyl-D-phenylalanyl-D-p-chlorophenylalanyl-D-tryptophyl-L-seryl-L-tyrosyl-D-phenylalanyl-L-leucyl-L-arginyl-l-prolyl-glycinamide] (Suc-[dF][dPhe(4-Cl)][dW]SY[dF]LRPG-NH2)
[1]
  % Blockade of Ovulation: 50%
[2]
  % Blockade of Ovulation: 80%

## CC(C)C[C@H](NC(=O)[C@@H](Cc1ccccc1)NC(=O)[C@H](Cc1ccc(O)cc1)NC(=O)[C@H](CO)NC(=O)[C@@H](Cc1c[nH]c2ccccc12)NC(=O)[C@@H](Cc1ccc(Br)cc1)NC(=O)[C@H](N)Cc1ccccc1)C(=O)N[C@@H](CCCNC(=N)N)C(=O)N1CCC[C@H]1C(=O)NCC(N)=O [Example 8, D-Phenylalanyl-D-p-bromophenylalanyl-D-tryptophyl-L-seryl-L-tyrosyl-D-phenylalanyl-L-leucyl-L-arginyl-L-prolyl-glycinamide] (H-[dF][dPhe(4-Br)][dW]SY[dF]LRPG-NH2)
[3]
  % Blockade of Ovulation: 50%

## CC(C)C[C@H](NC(=O)[C@@H](Cc1ccccc1)NC(=O)[C@H](Cc1ccc(O)cc1)NC(=O)[C@H](CO)NC(=O)[C@@H](Cc1c[nH]c2ccccc12)NC(=O)[C@@H](Cc1ccc(F)cc1)NC(=O)[C@H](N)Cc1ccccc1)C(=O)N[C@@H](CCCNC(=N)N)C(=O)N1CCC[C@H]1C(=O)NCC(N)=O [D-Phenylalanyl-D-p-fluorophenylalanyl-D-tryptophyl-L-seryl-L-tyrosyl-D-phenylalanyl-L-leucyl-L-arginyl-L-prolyl-glycinamide] (H-[dF][dPhe(4-F)][dW]SY[dF]LRPG-NH2)
[3]
  % Blockade of Ovulation: 10%

## CC(=O)N[C@H](Cc1ccccc1)C(=O)N[C@H](Cc1ccc(Cl)cc1)C(=O)N[C@H](Cc1c[nH]c2ccccc12)C(=O)N[C@@H](CO)C(=O)N[C@@H](Cc1ccc(O)cc1)C(=O)N[C@H](Cc1c[nH]c2ccccc12)C(=O)N[C@@H](CC(C)C)C(=O)N[C@@H](CCCNC(=N)N)C(=O)N1CCC[C@H]1C(=O)N[C@H](C)C(N)=O [Example 16, N-Acetyl-D-phenylalanyl-D-p-chlorophenylalanyl-D-tryptophyl-L-seryl-L-tyrosyl-D-tryptophyl-L-leucyl-L-arginyl-L-prolyl-D-alaninamide] (Ac-[dF][dPhe(4-Cl)][dW]SY[dW]LRP[dA]-NH2)
[4]
  % Blockade of Ovulation: 100%

## CC(=O)N[C@H](Cc1ccc(Cl)cc1)C(=O)N[C@H](Cc1ccc(Cl)cc1)C(=O)N[C@H](Cc1c[nH]c2ccccc12)C(=O)N[C@@H](CO)C(=O)N[C@@H](Cc1ccc(O)cc1)C(=O)N[C@H](Cc1c[nH]c2ccccc12)C(=O)N[C@@H](CC(C)C)C(=O)N[C@@H](CCCNC(=N)N)C(=O)N1CCC[C@H]1C(=O)NCC(N)=O [Example 14, N-Acetyl-D-p-chlorophenylalanyl-D-p-chlorophenylalanyl-D-tryptophyl-L-seryl-L-tyrosyl-D-tryptophyl-L-leucyl-L-arginyl-L-prolyl-glycinamide] (Ac-[dPhe(4-Cl)][dPhe(4-Cl)][dW]SY[dW]LRPG-NH2)
[4]
  % Blockade of Ovulation: 70%

## CC(=O)N[C@H](Cc1ccccc1)C(=O)N[C@H](Cc1ccccc1)C(=O)N[C@H](Cc1c[nH]c2ccccc12)C(=O)N[C@@H](CO)C(=O)N[C@@H](Cc1ccc(O)cc1)C(=O)N[C@H](Cc1c[nH]c2ccccc12)C(=O)N[C@@H](CC(C)C)C(=O)N[C@@H](CCCNC(=N)N)C(=O)N1CCC[C@H]1C(=O)NCC(N)=O [[Ac-D-Phe^1, D-Phe^2, D-Trp^3,6]-LH-RH, reference compound] (Ac-[dF][dF][dW]SY[dW]LRPG-NH2)
Table II, dose 100 mcg, suspension in corn oil
  % Blockade of Ovulation: 40%
Table II, dose 250 mcg, suspension in corn oil
  % Blockade of Ovulation: 100%

## CC(=O)N[C@H](Cc1ccccc1)C(=O)N[C@H](Cc1ccc(Cl)cc1)C(=O)N[C@H](Cc1c[nH]c2ccccc12)C(=O)N[C@@H](CO)C(=O)N[C@@H](Cc1ccc(O)cc1)C(=O)N[C@H](Cc1c[nH]c2ccccc12)C(=O)N[C@@H](CC(C)C)C(=O)N[C@@H](CCCNC(=N)N)C(=O)N1CCC[C@H]1C(=O)NCC(N)=O [Example 7, N-Acetyl-D-phenylalanyl-D-p-chlorophenylalanyl-D-tryptophyl-L-seryl-L-tyrosyl-D-tryptophyl-L-leucyl-L-arginyl-L-prolyl-glycinamide] (Ac-[dF][dPhe(4-Cl)][dW]SY[dW]LRPG-NH2)
Table I, dose 0.031 mg, in 20% propylene glycol in physiologic saline
  % Blockade of Ovulation: 64%
[1]
  % Blockade of Ovulation: 100%
Table II, dose 15 mcg, suspension in corn oil
  % Blockade of Ovulation: 100%
Table II, dose 31 mcg, suspension in corn oil
  % Blockade of Ovulation: 100%

## CC(C)C[C@H](NC(=O)[C@@H](Cc1ccccc1)NC(=O)[C@H](Cc1ccc(O)cc1)NC(=O)[C@H](CO)NC(=O)[C@@H](Cc1c[nH]c2ccccc12)NC(=O)[C@@H](Cc1ccc(Cl)cc1)NC(=O)[C@H](N)Cc1ccccc1)C(=O)N[C@@H](CCCNC(=N)N)C(=O)N1CCC[C@H]1C(=O)NCC(N)=O [Example 9, D-Phenylalanyl-D-p-chlorophenylalanyl-D-tryptophyl-L-seryl-L-tyrosyl-D-phenylalanyl-L-leucyl-L-arginyl-L-prolyl-glycinamide] (H-[dF][dPhe(4-Cl)][dW]SY[dF]LRPG-NH2)
[2]
  % Blockade of Ovulation: 11%
[3]
  % Blockade of Ovulation: 82%
